Assay [1] addresses T1, Plasminogen (Homo sapiens, UniProt P00747). Nature of the assay: Inhibitory activity of compound was evaluated against plasmin.
Assay [2] is described as follows: Inhibitory activity of compound was evaluated against plasmin-fibrin (Fn).
Assay [3] is described as follows: Inhibitory activity of compound was evaluated against thrombin-fibrinogen (Fg).
Assay [4] is described as follows: Inhibitory activity of compound was evaluated against thrombin-S-2238.
A short description of assay [5]: Inhibitory activity of compound was evaluated against urokinase-S-2444. Particulars: for pIC50: read-out: IC50.
Assay [6] can be described thus: Inhibitory activity of compound was evaluated against plasma kallikrein-S-2302. Format: cell-free.
A short description of assay [7]: Inhibitory activity of compound was evaluated against plasma kallikrein-S-2302; not detectable. Format: cell-free.
Assay [8] deals with T1, Plasminogen. In words: Inhibitory activity of compound was evaluated against plasmin; not detectable.
Assay [9] can be described thus: Inhibitory activity of compound was evaluated against thrombin-S-2238; not detectable.
A short description of assay [10]: Inhibitory activity of compound was evaluated against thrombin-fibrinogen (Fg); not detectable.
Assay [11] is described as follows: Inhibitory activity of compound was evaluated against plasmin-fibrin (Fn); not detectable.
Assay [12] is described as follows: Inhibitory activity of compound was evaluated against urokinase-S-2444; not detectable.

Structures are written as SMILES. pIC50: −log10 of the molar value.

T1 sequence (P00747 97-580 limits assumed): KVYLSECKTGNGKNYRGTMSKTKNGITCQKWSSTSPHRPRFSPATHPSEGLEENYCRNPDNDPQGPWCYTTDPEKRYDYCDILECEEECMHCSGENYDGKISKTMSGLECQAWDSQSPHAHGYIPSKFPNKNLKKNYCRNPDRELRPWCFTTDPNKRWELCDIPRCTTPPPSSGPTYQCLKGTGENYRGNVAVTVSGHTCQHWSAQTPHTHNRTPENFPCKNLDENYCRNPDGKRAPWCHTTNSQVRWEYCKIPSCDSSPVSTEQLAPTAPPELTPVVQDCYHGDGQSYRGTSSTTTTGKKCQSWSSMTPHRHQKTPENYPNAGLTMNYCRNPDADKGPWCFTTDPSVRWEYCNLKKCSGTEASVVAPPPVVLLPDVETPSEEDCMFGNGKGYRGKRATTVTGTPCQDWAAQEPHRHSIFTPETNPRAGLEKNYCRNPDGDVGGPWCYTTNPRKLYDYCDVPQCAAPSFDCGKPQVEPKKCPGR
T1 sequence (P00747 581-810 limits assumed): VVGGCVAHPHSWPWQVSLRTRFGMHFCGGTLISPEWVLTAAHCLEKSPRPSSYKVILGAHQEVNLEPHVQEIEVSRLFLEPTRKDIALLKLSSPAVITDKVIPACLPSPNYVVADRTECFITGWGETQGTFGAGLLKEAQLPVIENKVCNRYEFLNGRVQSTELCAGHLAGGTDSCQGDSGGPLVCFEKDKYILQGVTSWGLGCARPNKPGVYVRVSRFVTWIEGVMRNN

By pIC50 is commonly meant the negative decadic logarithm of the IC50, by convention in mol/L. Turning to `CCCCCCCCOC(=O)[C@H]1CC[C@H](CNC(=O)C(Cc2ccc(OC(=O)OCc3ccccc3Br)cc2)NC(=O)[C@H]2CC[C@H](CN)CC2)CC1` (some centres not stated), the pIC50 was 5.60 on Plasminogen [1]; 6.25 in assay [2]; under 5.00 in assay [3]; under 4.30 in [4]; under 4.30 in assay [5]; 4.35 in assay [6].
As for `CC(=O)c1ccc(NC(=O)C(Cc2ccc(OC(=O)OCc3ccccc3Br)cc2)NC(=O)[C@H]2CC[C@H](CN)CC2)cc1` (some centres not stated), the pIC50 against Plasminogen [1] was 6.64; in [6], 6.43.
`Cc1nc(C)c(CCCNC(=O)C(Cc2ccc(OC(=O)OCc3ccccc3Br)cc2)NC(=O)[C@H]2CC[C@H](CN)CC2)nc1O` (some centres not stated): the pIC50 in assay [7] (read-out: IC50) was 4.44; on Plasminogen [8] (read-out: IC50), 6.13; in assay [2], 6.41; in assay [9] (read-out: IC50), 3.31; in assay [10] (read-out: IC50), under 3.60; in [5] it was 4.27.
With `CCCCCCCCNC(=O)C(Cc1ccc(OC(=O)OCc2ccccc2Br)cc1)NC(=O)[C@H]1CC[C@H](CN)CC1` (some centres not stated), the negative logarithm of the IC50 (pIC50) against Plasminogen [1] was 6.10; in assay [2], 6.64; in [3], under 4.60; in [4], under 4.30; in assay [5] it was under 4.30; in [6], 4.80.
In the case of `CC(C)CCNC(=O)C(Cc1ccc(OC(=O)OCc2ccccc2Br)cc1)NC(=O)[C@H]1CC[C@H](CN)CC1` (some centres not stated), the pIC50 at Plasminogen [1] is 6.34; in assay [2] it was 7.25; in assay [3] it was under 4.00; in assay [4] it was 4.15; in assay [5], 3.59; in assay [6], 5.68.
`CCCCCCCCNC(=O)C(Cc1ccc(OCc2ccncc2)cc1)NC(=O)[C@H]1CC[C@H](CN)CC1` (some centres not stated): the pIC50 against Plasminogen [1] is 6.28; in assay [2] it was 6.44; in assay [3], under 4.00; in [4] it was under 3.40; in assay [5], 5.28; in assay [6], 4.52.
As for `NC[C@H]1CC[C@H](C(=O)NC(Cc2ccc(Oc3ncccn3)cc2)C(=O)Nc2cccc(C(=O)O)c2)CC1` (some centres not stated), the negative logarithm of the IC50 (pIC50) is 4.49 against Plasminogen [1]; 4.54 in assay [2]; under 3.00 in [3]; under 3.00 in assay [4]; 3.19 in assay [5]; 6.15 in assay [6].
Regarding `NC[C@H]1CC[C@H](C(=O)NC(Cc2ccccc2)C(=O)Nc2ccc(CC(=O)O)cc2)CC1` (some centres not stated), the pIC50 on Plasminogen [1] is 3.21; in [2], 3.46; in [3], under 3.00; in [4], under 3.00; in assay [5], 3.46; in assay [6], 5.89.
For the compound `Cc1nc(Cc2ccccc2)c(O)nc1Cc1ccccc1`, the IC50 result (in assay [7]; against Plasminogen [8]; in assay [11]; in assay [9]; in assay [10]; in assay [12]) was “Not detectable” each time.
With `Cc1nc(Cc2ccccc2)c(O)nc1CCCCNC(=O)c1cccs1`, the IC50 entry (in assay [7]; at Plasminogen [8]; in assay [11]; in assay [9]; in assay [10]; in assay [12]) was “Not detectable” in each case.
As to `Cc1nc(CCC(=O)OCc2ccccc2)c(O)nc1CCCCNC(=O)OCc1ccccc1`, the IC50 entry (in [7]; against Plasminogen [8]; in [11]; in assay [9]; in [10]; in assay [5]) was “Not detectable” in each case.
